Laboratory results from patent US6710048B2, “Pyrazine derivatives as modulators of tyrosine kinases” (Ortho-McNeil Pharmaceutical, Inc., priority 2000, dated 2004).

Experiments:
Assay type in all cases: cell-based
[1] = system: MDA-MB-231; experiment: Cell proliferation assay (14C-thymidine incorporation), MDA-MB-231; conditions: Homo sapiens, read-out: Inhibition of cell proliferation IC50
Procedure: (§1) The ability of a test compound to inhibit the proliferation of cell growth was determined by measuring incorporation of ^14C-labelled thymidine into newly synthesized DNA within the cells. This method was used on cell lines derived from carcinomas originating from several tissues such as HeLa cervical adenocarcinoma (American Type Culture Collection (ATCC), Virginia, Cat. #CCL-2), A375 malignant melanoma (ATCC CRL-1619), SK-OV-3 ovarian adenocarcinoma (ATCC HTB-77) HCT-116 colon carcinoma (CCL-247) and PC-3 prostate adenocarcinoma (ATCC CRL-1435). The method was also used on primary cells such as HUVEC endothelial cells (ATCC CRL-1730). In this way the effect of a compound on cell growth of cells with many different phenotypes can be determined. Cells were trypsinized and counted and 3000-8000 cells were added to each well of a 96-well CytoStar tissue culture treated scintillating microplate (Amersham #RPNQ0160) in complete medium in a volume of 100 μl. Cells were incubated for 24 hours in complete medium at 37° C. in an atmosphere containing 5% CO2.
(§2) Next, 1 μl of test compound in 100% DMSO was added to the wells of the plate. DMSO only was added to control wells. Cells were incubated for 24 more hours in complete medium at 37° C. in an atmosphere containing 5% CO2. Methyl ^14C-thymidine 56 mCi/mmol (NEN #NEC568 or Amersham #CFA532) was diluted in complete medium and 0.2 μCi/well was added to each well of the CytoStar plate in a volume of 20 μl. The plate was incubated for 24 hours at 37° C. plus 5% CO2 in drug plus ^14C-thymidine. The contents of the plate were discarded into a ^14C radioactive waste container by inverting the plate and the plate was washed twice with 200 μl PBS. 200 μl of PBS is then added to each well. The top of the plate was sealed with a transparent plate sealer and a white plate backing sealer (Packard #6005199) was applied to the bottom of the plate. The degree of Methyl ^14C-thymidine incorporation was quantified on a Packard Top Count.

[2] = system: HCT-116 colon carcinoma; experiment: Cell proliferation assay (14C-thymidine incorporation), HCT-116; conditions: Homo sapiens, read-out: Inhibition of cell proliferation IC50
Procedure: as §1, §2

[3] = system: rat aortic ring; experiment: Rat aortic ring assay (vascular sprouting); conditions: 192 h; rat aortic ring in fibrin gel, analyzed on day 8; read-out: Inhibition of Vascular Sprouting (IC50μM)
Procedure: The rat aortic ring assay is a rapid in vitro assay that measures new capillary growth in an environment that closely approximates the in vivo conditions of the extracellular matrix. The assay was performed as described (Nicosia, R F and Ottinetti, A. Growth of new microvessels in serum-free matrix culture of rat aorta. Lab Invest., 63: 115-122, 1990). Thoracic aortas were removed from 1 to 2-month old male Sprague-Dawley rats and transferred to a culture dish containing serum-free MCDB 131 medium (Clonetics). Extraneous tissue was removed and the aorta was sectioned into rings approximately 1 mm long and rinsed 8-10 times in serum-free medium. A solution of sterile 1.5% agarose (Type VI-A, Sigma, St. Louis, Mo.) was added to the wells of a 6-well plate. The wells were filled with clotting fibrinogen solution and an aortic ring was transferred into the well positioned with the lumen oriented horizontally in the center of the fibrin gel solution. The fibrinogen solution was prepared in MCDB 131 medium with bovine fibrinogen at 3 mg/ml. Clotting was initiated by adding 20 μl of a 50 NIH units/ml bovine thrombin solution and the fibrin gel generally formed within 30 seconds. The fibrinolytic inhibitor amino-n-caproic acid was added to the culture medium at 300 µg/ml (microgram per milliliter) for the first four days of the assay and at 50 μg/ml from day 5 to day 8. Once the fibrin gel solution solidified, 5 ml of serum-free MCDB 131 media containing 100 μg/ml penicillin, 100 μg/ml streptomycin and 0.25 μg/ml amphotericin B was added to each well. Explants were incubated at 37° C. with 5% CO2 for 8 days. Medium was replaced every 2-3 days and the assay was analyzed on day 8. Inhibition of vascular sprouting was measured by adding test compounds diluted in DMSO.

[4] = system: PC-3 prostate adenocarcinoma; experiment: Cell proliferation assay (14C-thymidine incorporation), PC-3; conditions: Homo sapiens, read-out: Inhibition of cell proliferation IC50
Procedure: as §1, §2

[5] = system: HeLa cervical adenocarcinoma; experiment: Cell proliferation assay (14C-thymidine incorporation), HeLa; conditions: Homo sapiens, read-out: Inhibition of cell proliferation IC50
Procedure: as §1, §2

[6] = system: SK-OV-3 ovarian adenocarcinoma; experiment: Cell proliferation assay (14C-thymidine incorporation), SK-OV-3; conditions: Homo sapiens, read-out: Inhibition of cell proliferation IC50
Procedure: as §1, §2

Row | SMILES | IC50 [1] | IC50 [2] | IC50 [3] | IC50 [4] | IC50 [5] | IC50 [6]
1 | CN(C)CCCNc1cncc(-c2cncc(Nc3cccc(Cl)c3)n2)c1 [Cmd 35, N^1-[5-[6-[(3-chlorophenyl)amino]pyrazinyl]-3-pyridinyl]-N^3,N^3-dimethyl-1,3-propanediamine] | 98.3 µM | > 100 µM | > 1 µM | > 100 µM | > 100 µM | 19.3 µM
2 | OCCCNc1cncc(-c2cncc(Nc3cccc(Cl)c3)n2)c1 [Cmd 4, 3-[[5-[6-[(3-chlorophenyl)amino]pyrazinyl]-3-pyridinyl]amino]-1-propanol] | 3.26 µM | 8.35 µM | 0.099 µM | 11.3 µM | 4.56 µM | 3 µM
3 | OCCCCNc1cncc(-c2cncc(Nc3cccc(Cl)c3)n2)c1 [Cmd 32, 4-[[5-[6-[(3-chlorophenyl)amino]pyrazinyl]-3-pyridinyl]amino]-1-butanol] | 27.6 µM | 23.5 µM | 0.83 µM | 67.6 µM | 86.4 µM | 14.6 µM
